{"source": "patent US20030211457A1", "about": "“Methods and kits for testing mutagenicity” (Transgenomic, Inc., priority 2002, published 2003)", "key": {"[1]": {"system": "TA 1535", "details": "TA1535; azide levels 0.08, 0.2, 0.66, 2.0 and 6 ug; 1.5 hours at 37° C. then 18 hrs selective enrichment; no heteroduplex in vehicle control", "procedure": "Reactions were performed in sterile 1.5 ml microfuge tubes. Each tube contained: In a first stage incubation, 1 ul of overnight culture of TA 1535; 6.5 ul LB; 15 ul H2O (or S9); 67.5 ul M9 (−histidine+biotin). These four components are added from a master mix to the microfuge tubes. […] The mixture was incubated 1.5 hours at 37° C. The lids of the tubes were closed, but ventilated by piercing with a needle, for aeration. In a second stage incubation, 800 ul of Selective Enrichment Media was added, and the mixture is incubated for 18 hrs without shaking.\nSelective Enrichment Media was prepared in a final volume of 900 ml as follows:\nThe media was autoclaved and cooled to room temperature. 90 ml of autoclaved 20% glucose was added. Prior to use, Biotin (Sigma) was added from a 400× stock (1.25M) to a final concentration of 1×.\nA 1 ul aliquot was used in a “Hot start” PCR amplification with a final denaturation/renaturation step followed by analysis by DHPLC. Each dose was processed in quadruplicate.\nFor TA1535, the following 342 bp amplicon from the hisG gene was prepared:\nIn the PCR, the forward primer was [sequence] (SEQ ID NO: 2) and the reverse primer was [sequence] (SEQ ID NO: 3). The DNA polymerase was Optimase™ polymerase. The PCR conditions were as follows: […]"}, "[2]": {"system": "TA 1535", "details": "TA1535, 1.5-hour exposure, plates incubated 2 days at 37° C., two columns of counts", "procedure": "For comparative purposes, Ames modified plate assay were performed. […] After the 1.5-hour exposure, the incubation was add to 2 ml of melted top agar, containing limited histidine and biotin, equilibrated to 50° C. (MOLTOX catalog no. 26-503) and plated on minimal plates lacking histidine (MOLTOX catalog no.21-400). The plates were incubated 2 days at 37° C. and revertant colonies counted as shown:"}}, "note": "Values joined by “and” are separate entries in the source; they are usually repeats but may differ in a detail not shown here. Equal entries are not always repeated. Where two headings read alike, the source gives them in different places.", "data": [{"smiles": "[N-]=[N+]=[N-]", "note": "[sodium azide]", "values": [{"measurement": "DNA back-mutation at the hot spot (heteroduplex by DHPLC)", "setting": "[1]", "result": "caused DNA back-mutation at the hot spot"}, {"measurement": "no. revertant colonies", "setting": "[2]; NaN3 exposure amount 0.08 ug", "result": "3 and 5"}, {"measurement": "no. revertant colonies", "setting": "[2]; NaN3 exposure amount 0.2 ug", "result": 13}, {"measurement": "no. revertant colonies", "setting": "[2]; NaN3 exposure amount 0.6 ug", "result": "15 and 27"}, {"measurement": "no. revertant colonies", "setting": "[2]; NaN3 exposure amount 2 ug", "result": "39 and 66"}, {"measurement": "no. revertant colonies", "setting": "[2]; NaN3 exposure amount 6 ug", "result": ">100"}]}]}
